molecular target: T1, hSULT2A1 (Homo sapiens, UniProt Q06520); experiment: Kinetics of inhibition of hSULT2A1-catalyzed sulfation of [3H]DHEA by OHPCBs; format: biochemical; conditions: not given
T1 sequence (Q06520 1-285): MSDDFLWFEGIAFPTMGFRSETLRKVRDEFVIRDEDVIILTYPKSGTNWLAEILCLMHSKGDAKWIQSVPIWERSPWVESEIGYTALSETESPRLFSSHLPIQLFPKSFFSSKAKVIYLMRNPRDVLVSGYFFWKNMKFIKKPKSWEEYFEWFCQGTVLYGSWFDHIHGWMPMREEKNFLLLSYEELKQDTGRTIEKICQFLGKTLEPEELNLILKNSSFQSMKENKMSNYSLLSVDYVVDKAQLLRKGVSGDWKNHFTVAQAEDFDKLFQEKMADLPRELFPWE

SMILES	Ki	α value of partial competitive inhibition equation
Oc1c(Cl)cc(-c2ccccc2)cc1Cl [4-OHPCB 14, 4-hydroxy-3,5-dichlorobiphenyl]	13.5 ± 1 µM	
Oc1c(Cl)cc(-c2cccc(Cl)c2)cc1Cl [4-OHPCB 36, 4-hydroxy-3, 3’, 5-trichlorobiphenyl]	3.4 ± 0.8 µM	4.2
Oc1ccc(-c2ccccc2Cl)cc1Cl [4’-OHPCB 6, 4’-hydroxy-2, 3’-dichlorobiphenyl]	5.4 ± 0.2 µM	
Oc1c(Cl)cc(-c2ccccc2Cl)cc1Cl [4-OHPCB 34, 4-hydroxy-2’, 3,5-trichlorobiphenyl]	0.8 ± 0.1 µM	
Oc1ccc(-c2ccc(Cl)cc2Cl)cc1Cl [4’-OHPCB 25, 4’-hydroxy-2, 3’, 4-trichlorobiphenyl]	3 ± 0.6 µM	
Oc1ccc(-c2cccc(Cl)c2Cl)cc1O [3’,4’-diOHPCB 5, 3’, 4’- dihydroxy-2,3-dichlorobiphenyl]	14 ± 0.8 µM	
Oc1ccc(-c2ccc(Cl)cc2)cc1O [3’,4’-diOHPCB 3, 3’, 4’-dihydroxy-4-monochlorobiphenyl]	32 ± 2.3 µM	
Oc1ccc(-c2ccc(Cl)c(Cl)c2)cc1 [4’-OHPCB 12, 4’-hydroxy-3,4-dichlorobiphenyl]	4 ± 0.3 µM	
Oc1ccc(-c2cc(Cl)ccc2Cl)cc1 [4’-OHPCB 9, 4’-hydroxy-2,5-dichlorobiphenyl]	0.7 ± 0.1 µM	
Oc1c(Cl)cc(-c2ccc(Cl)cc2Cl)cc1Cl [4’-OHPCB 68, 4’-hydroxy-2, 3’, 4, 5’-tetrachlorobiphenyl]	0.6 ± 0.1 µM	
Oc1ccc(-c2ccc(Cl)cc2)cc1 [4’-OHPCB 3, 4’-hydroxy-4-monochlorobiphenyl]	17 ± 1.5 µM	
Oc1ccc(-c2ccc(Cl)c(Cl)c2)c(Cl)c1 [4’-OHPCB 33, 4’-hydroxy-2’, 3,4-trichlorobiphenyl]	3 ± 0.2 µM	
Oc1ccc(-c2ccc(Cl)cc2)c(Cl)c1 [4-OHPCB 8, 4-hydroxy-2, 4’-dichlorobiphenyl]	5 ± 0.4 µM	
Oc1ccc(-c2cccc(Cl)c2)cc1Cl [4-OHPCB 11, 4-hydroxy-3, 3’-dichlorobiphenyl]	12 ± 0.9 µM	

same assay, conditions: fixed PAPS, varied DHEA and inhibitor; model chosen by R2 and AICc

SMILES	type of inhibition with respect to DHEA (best-fit kinetic model)
Oc1c(Cl)cc(-c2cccc(Cl)c2)cc1Cl [4-OHPCB 36, 4-hydroxy-3, 3’, 5-trichlorobiphenyl]	partial competitive inhibition
Oc1ccc(-c2ccccc2Cl)cc1Cl [4’-OHPCB 6, 4’-hydroxy-2, 3’-dichlorobiphenyl]	noncompetitive
Oc1ccc(-c2ccc(Cl)cc2Cl)cc1Cl [4’-OHPCB 25, 4’-hydroxy-2, 3’, 4-trichlorobiphenyl]	partial noncompetitive inhibition
Oc1ccc(-c2cc(Cl)ccc2Cl)cc1 [4’-OHPCB 9, 4’-hydroxy-2,5-dichlorobiphenyl]	partial noncompetitive inhibition
Oc1c(Cl)cc(-c2ccc(Cl)cc2Cl)cc1Cl [4’-OHPCB 68, 4’-hydroxy-2, 3’, 4, 5’-tetrachlorobiphenyl]	partial noncompetitive inhibition

same assay, conditions: read-out: Ki, inhibition of the sulfation of DHEA catalyzed by hSULT2A1; nonlinear regression fit to noncompetitive inhibition equation (4-OHPCB 36: competitive inhibition equation); 200 µM PAPS, pH 7.0, 37°C

SMILES	Ki
Oc1ccc(Cl)cc1-c1ccc(Cl)c(Cl)c1 [6’-OHPCB 35, 6’-hydroxy-3, 3’-4 trichlorobiphenyl]	9 ± 0.5 µM

same assay, conditions: signifies formation of DHEA-sulfate in the presence of the inhibitor

SMILES	β value of partial noncompetitive inhibition equation
Oc1ccc(-c2ccc(Cl)cc2Cl)cc1Cl [4’-OHPCB 25, 4’-hydroxy-2, 3’, 4-trichlorobiphenyl]	0.19 ± 0.06
Oc1ccc(-c2cc(Cl)ccc2Cl)cc1 [4’-OHPCB 9, 4’-hydroxy-2,5-dichlorobiphenyl]	0.11 ± 0.02
Oc1c(Cl)cc(-c2ccc(Cl)cc2Cl)cc1Cl [4’-OHPCB 68, 4’-hydroxy-2, 3’, 4, 5’-tetrachlorobiphenyl]	0.23 ± 0.07

molecular target: T2, hSULT2A1 E-PAP complex (Homo sapiens, UniProt Q06520); experiment: Ligand binding to the hSULT2A1-PAP complex by ANS fluorescence displacement; conditions: not given
T2 sequence (Q06520 1-285): T1 sequence (Q06520 1-285)

SMILES	Kd
Oc1c(Cl)cc(-c2ccccc2)cc1Cl [4-OHPCB 14, 4-hydroxy-3,5-dichlorobiphenyl]	2.21 ± 0.5 µM
Oc1c(Cl)cc(-c2ccccc2Cl)cc1Cl [4-OHPCB 34, 4-hydroxy-2’, 3,5-trichlorobiphenyl]	3.2 ± 0.31 µM

molecular target: T1, hSULT2A1; experiment: Ligand binding to free hSULT2A1 by ANS fluorescence displacement; conditions: not given

SMILES	Kd
Oc1c(Cl)cc(-c2ccccc2)cc1Cl [4-OHPCB 14, 4-hydroxy-3,5-dichlorobiphenyl]	2.55 ± 0.63 µM
Oc1c(Cl)cc(-c2cccc(Cl)c2)cc1Cl [4-OHPCB 36, 4-hydroxy-3, 3’, 5-trichlorobiphenyl]	2.46 ± 0.43 µM
Oc1c(Cl)cc(-c2ccccc2Cl)cc1Cl [4-OHPCB 34, 4-hydroxy-2’, 3,5-trichlorobiphenyl]	2.07 ± 0.3 µM
Oc1ccc(-c2ccc(Cl)cc2)cc1O [3’,4’-diOHPCB 3, 3’, 4’-dihydroxy-4-monochlorobiphenyl]	1.17 ± 1.11 µM
Oc1c(Cl)cc(-c2ccc(Cl)cc2Cl)cc1Cl [4’-OHPCB 68, 4’-hydroxy-2, 3’, 4, 5’-tetrachlorobiphenyl]	2.26 ± 0.33 µM
Oc1ccc(-c2ccc(Cl)cc2)cc1 [4’-OHPCB 3, 4’-hydroxy-4-monochlorobiphenyl]	3.48 ± 1.03 µM

same assay, conditions: free enzyme

SMILES	binding pattern to hSULT2A1 (ANS displacement)
Oc1c(Cl)cc(-c2ccccc2)cc1Cl [4-OHPCB 14, 4-hydroxy-3,5-dichlorobiphenyl]	classical single-site binding characteristics
Oc1c(Cl)cc(-c2ccccc2Cl)cc1Cl [4-OHPCB 34, 4-hydroxy-2’, 3,5-trichlorobiphenyl]	classical single-site binding characteristics
Oc1ccc(-c2cc(Cl)ccc2Cl)cc1 [4’-OHPCB 9, 4’-hydroxy-2,5-dichlorobiphenyl]	multiphasic binding
Oc1ccc(Cl)cc1-c1ccc(Cl)c(Cl)c1 [6’-OHPCB 35, 6’-hydroxy-3, 3’-4 trichlorobiphenyl]	multiphasic behavior
Oc1ccc(-c2ccc(Cl)c(Cl)c2)c(Cl)c1 [4’-OHPCB 33, 4’-hydroxy-2’, 3,4-trichlorobiphenyl]	multiphasic binding

same assay, conditions: read-out: Kd2, binding to hSULT2A1 in the absence of substrates or products; free enzyme; two-site, nonspecific binding curve

SMILES	Kd
Oc1ccc(-c2ccc(Cl)cc2)cc1O [3’,4’-diOHPCB 3, 3’, 4’-dihydroxy-4-monochlorobiphenyl]	41.9 ± 74.8 µM

same assay, conditions: with or without DHEA or PAP

SMILES	difference in the multiphasic binding pattern in the presence or absence of either DHEA or PAP
Oc1ccc(-c2cc(Cl)ccc2Cl)cc1 [4’-OHPCB 9, 4’-hydroxy-2,5-dichlorobiphenyl]	did not show significant differences
Oc1ccc(-c2ccc(Cl)c(Cl)c2)c(Cl)c1 [4’-OHPCB 33, 4’-hydroxy-2’, 3,4-trichlorobiphenyl]	did not show significant differences

molecular target: T1, hSULT2A1; experiment: not given; conditions: cited from earlier work

SMILES	substrate for hSULT2A1-catalyzed sulfation
Oc1c(Cl)cc(-c2ccccc2)cc1Cl [4-OHPCB 14, 4-hydroxy-3,5-dichlorobiphenyl]	served as alternate substrates
Oc1c(Cl)cc(-c2cccc(Cl)c2)cc1Cl [4-OHPCB 36, 4-hydroxy-3, 3’, 5-trichlorobiphenyl]	served as alternate substrates
Oc1c(Cl)cc(-c2ccccc2Cl)cc1Cl [4-OHPCB 34, 4-hydroxy-2’, 3,5-trichlorobiphenyl]	served as alternate substrates
Oc1ccc(-c2ccc(Cl)cc2Cl)cc1Cl [4’-OHPCB 25, 4’-hydroxy-2, 3’, 4-trichlorobiphenyl]	served as alternate substrates
Oc1c(Cl)cc(-c2ccc(Cl)cc2Cl)cc1Cl [4’-OHPCB 68, 4’-hydroxy-2, 3’, 4, 5’-tetrachlorobiphenyl]	served as alternate substrates
Oc1ccc(-c2ccc(Cl)c(Cl)c2)c(Cl)c1 [4’-OHPCB 33, 4’-hydroxy-2’, 3,4-trichlorobiphenyl]	served as alternate substrates
Oc1ccc(-c2ccc(Cl)cc2)c(Cl)c1 [4-OHPCB 8, 4-hydroxy-2, 4’-dichlorobiphenyl]	served as alternate substrates
Oc1ccc(-c2cccc(Cl)c2)cc1Cl [4-OHPCB 11, 4-hydroxy-3, 3’-dichlorobiphenyl]	served as alternate substrates
